Results reported in publication PMC11001709, “Anti-toxoplasma activity and DNA-binding of copper(II) and zinc(II) coordination compounds with 5-nitroimidazole-based ligands” (Journal of Biological Inorganic Chemistry, 2023).

What was measured:
ct-DNA = assay: UV-Vis absorption titration with ct-DNA (Kb); type: binding, calf; settings: band at 320 nm, cacodylate/NaCl buffer pH 7.25, 1 h
Experimental: For the UV–Vis, fluorescence and circular dichroism assays the concentration of ct-DNA was determined on a Varian Cary 100 Scan spectrophotometer from the absorption at 260 nm and the corresponding molar absorptivity of 6600 M^−1 cm^−1 (nucleobase concentration). The stock solutions of the coordination compounds and the free ligands were prepared in cacodylate/NaCl buffer (1 mM cacodylic acid and 20 mM sodium chloride) at pH 7.25. The final samples contained a DMSO concentration of 0.2%.
Absorption titration experiments were carried out by adding increasing concentrations of ct-DNA (0–25 µM) to 10 µM of the compounds in a final volume of 2 mL. The samples were incubated for 1 h at 37 °C, and spectra were collected on a Varian Cary 100 Scan spectrophotometer. For these assays the charge-transfer band of the compounds was followed at 320 nm. The intrinsic binding constant (Kb) was determined from the titration data using Eq. 2:2 DNA/εα-εf=DNA/ε0-εf+1/Kbε0-εf where εa, ε0 and εf are respectively, the molar extinction coefficients of […].

Entamoeba histolytica = settings: cited from earlier work

In the case of `Cc1ncc([N+](=O)[O-])n1CCCl.Cc1ncc([N+](=O)[O-])n1CCCl.[Br][Cu][Br]` [[Cu(cenz)2Br2]], the Kb (ct-DNA) is reported as 450000 M⁻¹.

In the case of `Cc1ncc([N+](=O)[O-])n1CC(O)CCl.Cc1ncc([N+](=O)[O-])n1CC(O)CCl.[Cl][Zn][Cl]` (centres unmarked) [[Zn(onz)2Cl2]], the MIC (Entamoeba histolytica) is listed as 6.25 µM.
